Source: patent publication US8232318B2, “Approaches to treat cancer using HB-EGF inhibitors” (The General Hospital Corporation, priority 2009, dated 2012)
Entries after “also recorded” stand apart in the source; their conditions may differ.

Key:
[1] = system: EJ cells; experiment: Clonogenic assay of EJ cells; type: cell-based, human; settings: for colony growth: EJ cells, 5 μM, grown for two weeks
Description: Aliquots of one hundred EJ cells were plated out in petridish (60 mm size) and allowed to establish themselves. […] After exposure, the cells were grown for two weeks without changing the medium, and the number of cell colonies were counted.

[2] = system: human cancer cells including breast cancer cells, bladder cancer cells, colon cancer cells, and lung cancer cells; experiment: Tumor cell growth inhibition / viable cells by crystal-violet staining; type: cell-based
Description: The ability to suppress the growth of cancer cells was again seen at micromolar potencies (2.5-10 microM) and was concentration dependent. […] Viable cells are shown with crystal-violet cell staining.

[3] = system: human cancer cells including breast cancer cells, bladder cancer cells, colon cancer cells, and lung cancer cells; experiment: Induction of cell death/apoptosis in a panel of human cancer cells; type: cell-based
Description: We evaluated the ability of myrsinoic acid A (NP2008) to suppress cell growth and induce apoptosis in a panel of human cancer cells.

[4] = system: EJ cells or A549 cells; experiment: Lung or bladder tumor xenograft in nude mice; type: in vivo; settings: intraperitoneally 1 mg/kg every 48 hours for 42 days, vs control DMSO-administered mice
Description: Lung or bladder tumor xenograft-bearing mice were treated with myrsinoic acid A to evaluate its in vivo anti-tumor effect. A total of 2×10^6 EJ cells or A549 cells were implanted subcutaneously on opposite site flanks in each nude/nude mice (Charles River, Mass.). There were six mice in each group. When tumor masses grew to ˜2-5 mm in diameter, myrsinoic acid A (NP2008) was administered intraperitoneally (total 1 mg/kg) every 48 hours for 42 days.

[5] = system: EJ cancer cells; experiment: Cytotoxicity assay (sulforhodamine B) in EJ cancer cells; type: cell-based, human; settings: high and low confluent density, FIG. 10 legend
Description: DMSO treatment was used as a control. Cells were stained with 0.4% sulforhodamine B three days after treatment. The results are shown in FIG. 10 A (cells started with higher confluent density) and FIG. 10 B (treatment experiments performed with lower confluent density). FIG. 10 C (low confluent) and FIG. 10 D show the result of a time curve experiment wherein aliquots of cells were stained at 24, 48, 72 and 96 hours.

[6] = system: phospho-EGFR, phospho-Her3/ErbB3 and phospho-AKT; experiment: EGFR signaling in Iressa resistant SKBR3 cells by Western blot; type: cell-based, human; settings: longer exposure (up to 96 hours)
Description: After treatment, total cell lysates were isolated and analyzed by Western blot analysis. The cells were evaluated for the presence of phospho-EGFR, phospho-Her3/ErbB3 and phospho-AKT.

[7] = mouse ear inflammatory test; cited from earlier work
[8] = system: human normal (non-cancerous) breast epithelial cells; experiment: Toxicity in human primary normal (non-cancerous) cells; type: cell-based; settings: 5 and 10 microM (Iressa 5 microM), 24-96 hours, Alamar Blue and cell death assays
Description: The cultures were subsequently stained with crystal-violet blue to evaluate the number of live cells. […] The number of dead cells was determined by Alamar Blue staining as well as Cyto-Flow-cell death assays from Promega (Madison, Wis.).

[9] = system: mammary tumor; experiment: Spontaneous tumor model (MMTV-PyVT transgenic mice); type: in vivo; settings: 5 mg/kg daily i.p. for 28 days, vs DMSO
Description: Mice with a spontaneous tumor model (MMTV-PvVT (FVB/N-Tg) transgenic mice; NCI repository) develop multifocal mammary tumor (from hyperplasia to metastatic) with a high incidence of metastasis. This mouse model has been widely used for the correlation studies of human cancer (Guy et al., Moll. Cell. Biol. 12: 954-961, 1992). In addition, this mouse model has been used to evaluate the effectiveness of potential drug therapies. Generally, due to aggressiveness of tumor growth and spread in this mouse-model, only a combination of chemo-drugs is effective in tumor growth inhibition in this mouse model.
MMTV-PyVT mice were maintained until mammary tumor size reached to 6 mm, and then treated with myrsinoic acid A (NP2008) (5 mg/kg) or vehicle (DMSO) daily by i.p. for 28 days.

[10] = system: DNA polymerases; settings: cited from earlier work
[11] = target: T1, HB-EGF (Homo sapiens, UniProt Q99075); experiment: Surface Plasmon Resonance (Biacore) binding to immobilized HB-EGF; settings: SPR, compound 0.78 uM-50 uM, 25° C.
T1 construct: lyophilized HB-EGF protein (R&D Systems) was dissolved in either water or PBS buffer; purchased R&D Systems
T1 sequence (Q99075 63-148 limits assumed): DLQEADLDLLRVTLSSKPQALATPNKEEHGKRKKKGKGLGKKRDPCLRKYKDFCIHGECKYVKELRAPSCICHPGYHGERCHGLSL
Description: A Biacore™ T100 (GE Healthcare, Uppsala, Sweden) was used to perform the Surface Plasmon Resonance (SPR) experiments. Sensor surface preparation and interaction analyses experiments were performed at 25° C. Prior to surface preparation, lyophilized HB-EGF protein (R&D Systems) was dissolved in either water or PBS buffer, at pH 7.4 and protein purity determined by Nu-Page 4-12% Bis-Tris gel in MOPS (3-(N-Morpholino)-propanesulfonic acid) buffer with a silver stain sensor preparation. HB-EGF was immobilized onto series S sensor chip CM4 via a standard N-ethyl-N′-(dimethyl-aminopropyl)carbodiimide/N-hydroxysuccinimide (EDC/NHS) amine coupling procedures. HB-EGF was diluted to 10 μg/mL in 10 mM sodium acetate pH5.5 for these procedures and resultant immobilization levels were 1000-1200 R.U.s. (R.U.: […]). Control surfaces were prepared similarly without protein derivatization and utilized as a reference surfaces for compound binding experiments. For compound interaction analyses, 0.01 M Hepes, pH7.4, 0.15 M NaCl, 0.05% Surfactant P20 and 5% DMSO was used. Compound samples were prepared by serial dilution in the range 0.78 uM-50 uM and flowed over control and derivatized surfaces for two minutes at a flow-rate of 80 μL/min. Zero concentration blank buffer cycles were included as negative control samples. […]

[12] = system: methioninase; settings: cited from earlier work
[13] = concentration dependent, wildtype or mutated p53 cell lines

With `COc1cc2ncnc(Nc3ccc(F)c(Cl)c3)c2cc1OCCCN1CCOCC1` [Iressa, reference compound] the colony growth [1] was “did not show any colony growth”.

For `CC(C)=CCC/C(C)=C/Cc1cc(C(=O)O)cc(CC=C(C)C)c1O` [myrsinoic acid A, 3-geranyl-4-hydroxy-5-(3′-methyl-2′butenyl)-benzoic acid], the “number of viable cells” value ([2]; EJ, HCT116, MDA-MD486 and A549 cells, crystal-violet staining (FIG. 6)) was “decrease in the number viable cells”, the “potencies at which growth of cancer cells is suppressed” value [2, 13] was 2.5 to 10 µM and the cell death ([3]; EJ human bladder cancer cells and HCT116 human colon cancer cells (FIG. 5)) was “induces cell death”. The “potencies at which apoptosis is induced” value [3, 13] was 2.5 to 10 µM, the tumor growth [4] was “significant tumor-growth suppression” and the “suppression of cancer cell proliferation compared with Iressa” value [5] was “more potent suppressor of cancer cell proliferation than Iressa”. For the same compound, the “phospho-EGFR, phospho-HER3 and phospho-AKT on longer exposure” value [6] was “long term suppression”, the anti-inflammatory activity [7] was “act as anti-inflammatory compounds” and the “cytotoxicity in normal cells” value [8] was “less cytotoxicity in normal cells than Iressa; also recorded: non-toxic”. The tumor mass [9] was “significant reduction in tumor mass”, the colony growth [1] was “did not show any colony growth” and the “suppression of growth of EJ cells compared with radiation or Iressa” value ([1]; clonogenic assay, FIG. 9 legend) was “more effective”. For the same compound, the DNA polymerase inhibition [10] was “inhibitor of some DNA polymerases” and the “binding to HB-EGF” value [11] was “binding”.

For `CC(C)=CCCC(C)(O)C1Cc2cc(C(=O)O)cc(CC=C(C)C)c2O1` (centres unmarked) [myrsinoic acid B], the anti-inflammatory activity [7] is given as “act as anti-inflammatory compounds” and the methioninase inhibition [12] is given as “methioninase inhibitor”.

In the case of `CC(C)=CCC[C@]1(C)Oc2c(CC=C(C)C)cc(C(=O)O)cc2C[C@@H]1O` [myrsinoic acid C], the anti-inflammatory activity [7] is listed as “act as anti-inflammatory compounds”.

For `CC(C)=CCC/C(C)=C/Cc1cc(C(=O)O)cc(C/C=C(\C)CCC=C(C)C)c1O` [myrsinoic acid E], the anti-inflammatory activity [7] is listed as “act as anti-inflammatory compounds”.

For `CC(C)=CC/C=C(\C)C1Cc2cc(C(=O)O)cc(CC=C(C)C)c2O1` (centres unmarked) [myrsinoic acid F], the anti-inflammatory activity [7] is given as “act as anti-inflammatory compounds; also recorded: most potent anti-inflammatory compound”.
